Patent US4816447A, “Anti-viral guanine compounds” (priority 1984, dated 1989)

Experiments:
[1] = test system: mycoplasmal growth; assay: Inhibition of mycoplasmal growth in chickens; assay type: in vivo; conditions: systemic, 875 μg/bird
[2] = Comparative solubilities in pH 7.2 buffer at 25°; assay type: physicochemical; conditions: aqueous buffer; pH 7.2 phosphate buffer, 25°
Method: Comparative Solubilities in pH 7.2 Buffer at 25°
Solubilities were determined by suspending an excess amount of the compound in approximately 0.15 molar phosphate buffer (pH 7.2) and shaking overnight in a water bath at 25° to give a saturated solution. The concentration of the compound in the filtered solution was calculated on the basis of spectrophotometric measurements, i.e. comparison of the ultraviolet absorbance at the λmax for the saturated solution with the absorbance value observed for a known concentration of the compound.

[3] = test system: guanosine monophosphate kinase and extract of HSV1-infected HeLa cells; assay type: biochemical; conditions: gmp kinase, 4 h
Method: To the rest of the incubation mixtures were now added 0.04 units of guanosine monophosphate kinase and 20 μl of an extract of HSV1-infectedHeLa cells [The cells were infected with the virus at a multiplicity of 10 and harvested 8 hours later; they were suspended in a solution containing 0.35M KH2 PO4, pH 7.5, 0.5 mM dithiothreitol, 0.2% polyoxyethylene(9)octylphenol (Nonidet P-40), 14% glycerol at 50 mg/ml and after 30 minutes at 4° were centrifuged at […]; the supernatant liquid was the crude extract.] Incubation was continued at 30° for 4 more hours, after which samples were analyzed by HPLC and the amount of the triphosphate derivatives of each compound determined by integration of the area under the respective chromatographic peak.

[4] = test system: Herpes simplex virus type I (HSV-1), strain Schooler; assay: Treatment of Herpes simplex virus infection in mice, intraperitoneal HSV-1, subcutaneous treatment (Table II); assay type: in vivo, HSV-1; ICR/Ha mice; conditions: for Percent Survival: at 15 days
[5] = test system: Herpes simplex virus type I (HSV-1), strain Schooler; assay: Treatment of Herpes simplex virus infection in mice, repeat experiment (Table III); assay type: in vivo, HSV-1; ICR/Ha mice; conditions: for Percent Survival: at 15 days
Method: Twenty gram ICR/Ha mice were injected intraperitoneally (ip) with 0.5 ml of a 10^-5 dilution of a stock preparation of Herpes simplex virus type I (HSV-1), strain Schooler. This virus challenge infected each animal with approximately 100 LD50. […] The placebo group was composed of 45 animals. All compounds were solubilized in physiological saline, pH 11.5.

[6] = Genotoxicity; conditions: qualitative statement
[7] = test system: Herpes simplex virus type 1; assay: Tube dilution assay, viral cytopathology of HSV-1 in rabbit kidney cell cultures; conditions: Human alphaherpesvirus 1, in Oryctolagus cuniculus, read-out: Minimum Effective Concentration, Strain Schooler
[8] = test system: Herpes simplex virus type 2; assay: Tube dilution assay, viral cytopathology of HSV-2 in rabbit kidney cell cultures; conditions: Human alphaherpesvirus 2, in Oryctolagus cuniculus, read-out: Minimum Effective Concentration
[9] = test system: HSV-1 PAA ®1; conditions: HSV-1 PAA R1
[10] = test system: HSV-2 TS6
[11] = test system: HSV-1 wild type Strain 17; assay: Drug sensitivity of HSV-1 wild type Strain 17; conditions: HSV-1 wild type Strain 17
[12] = test system: Recombinant 6-26; assay: Drug sensitivity of HSV-1/HSV-2 intertypic Recombinant 6-26; conditions: Recombinant 6-26
[13] = test system: Recombinant 6-30; assay: Drug sensitivity of HSV-1/HSV-2 intertypic Recombinant 6-30; conditions: Recombinant 6-30
[14] = test system: Recombinant 6-34; assay: Drug sensitivity of HSV-1/HSV-2 intertypic Recombinant 6-34; conditions: Recombinant 6-34
[15] = test system: Recombinant 6-19; assay: Drug sensitivity of HSV-1/HSV-2 intertypic Recombinant 6-19; conditions: Recombinant 6-19
[16] = target: T1, guanosine monophosphate kinase from hog brain (Sus scrofa, UniProt P31006); assay: Kinetic parameters with purified guanosine monophosphate kinase; assay type: biochemical; conditions: for Vmax: 25°, pH 7.6
T1 sequence (P31006 1-198): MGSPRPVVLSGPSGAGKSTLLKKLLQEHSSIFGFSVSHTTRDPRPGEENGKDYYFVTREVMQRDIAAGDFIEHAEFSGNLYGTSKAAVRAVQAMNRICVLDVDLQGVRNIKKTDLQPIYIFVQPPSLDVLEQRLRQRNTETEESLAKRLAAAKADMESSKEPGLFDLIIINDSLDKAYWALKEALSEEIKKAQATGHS

For CCCCCCCC(=O)OCC(COC(=O)CCCCCCC)OCn1cnc2c(=O)[nH]c(N)nc21 [Example 11, 9-(1,3-Dioctanoyloxy-2-propoxymethyl)guanine], the “inhibition of mycoplasmal growth” value [1] was 75%.
For Nc1nc2c(ncn2COCC(O)CO)c(=O)[nH]1 (stereo not drawn) [Compound of Formula I, 9-(2,3-Dihydroxy-1-propoxymethyl)guanine], the solubility [2] was 3600 µg/mL, the “converted to the triphosphate” value [3] was 55% and the “Avg. Survival Time” value ([4]; 3.1 mg/kg/day s.c.) was 6.3 days. For the same compound, the “Percent Survival” value ([4]; 3.1 mg/kg/day s.c.) was 0%, the “Avg. Survival Time” value ([4]; 12.5 mg/kg/day s.c.) was 9.0 days and the “Percent Survival” value ([4]; 12.5 mg/kg/day s.c.) was 26%. For the same compound, the “Avg. Survival Time” value ([4]; 50 mg/kg/day s.c.) was 11.8 days, the “Percent Survival” value ([4]; 50 mg/kg/day s.c.) was 60% and the “Avg. Survival Time” value ([5]; 3.1 mg/kg/day s.c.) was 7.2 days. For the same compound, the “Percent Survival” value ([5]; 3.1 mg/kg/day s.c.) was 6%, the “Avg. Survival Time” value ([5]; 12.5 mg/kg/day s.c.) was 9.8 days and the “Percent Survival” value ([5]; 12.5 mg/kg/day s.c.) was 33%. The “Avg. Survival Time” value ([5]; 50 mg/kg/day s.c.) was 10.5 days, the “Percent Survival” value ([5]; 50 mg/kg/day s.c.) was 36% and the “calculated average relative potency to acycloguanosine (95% CI)” value ([5]; combined results of both mouse experiments) was 9.2. For the same compound, the genotoxicity [6] was “lack of genotoxicity”, the minimal effective concentration [7] was 1 to 3 µg/mL and the minimal effective concentration [8] was 3 to 6 µg/mL.
In the case of O=C(O)CP(=O)(O)O [PAA, phosphonoacetic acid, reference compound], the “Sensitivity (S) or Resistance (R)” value [9] is reported as “R”, the “Sensitivity (S) or Resistance (R)” value ([10]; HSV-2 TS6) is reported as “S” and the “sensitivity of HSV-2 Ts6” value ([10]; HSV-2 Ts6) is reported as “sensitive”. For the same compound, the “Sensitivity (S) or Resistance (R)” value [11] was “S”, the “Sensitivity (S) or Resistance (R)” value [12] was “S” and the “Sensitivity (S) or Resistance (R)” value [13] was “S”. For the same compound, the “Sensitivity (S) or Resistance (R)” value [14] was “R” and the “Sensitivity (S) or Resistance (R)” value [15] was “R”.
Nc1nc2c(ncn2[C@H]2C[C@H](O)[C@@H](COP(=O)(O)O)O2)c(=O)[nH]1 [Deoxyguanosine monophosphate, deoxyguanosine monophosphate, reference compound] showed a Vmax [16] of 17.2 µg/min/mg.
In the case of Nc1nc2c(ncn2COC(CO)COP(=O)(O)O)c(=O)[nH]1 (stereo not drawn) [Compound of Formula II Monophosphate], the “relative efficiency as substrate (Vmax /Km) vs acycloguanosine monophosphate” value [16] is reported as 492 to 1 and the Vmax [16] is reported as 7.1 µg/min/mg.
